Source: the NIST ThermoML archive (doi:10.1021/je900306v)
Numbers after ± are expanded uncertainties.

Conditions: Liquid, Closed cell (Static) method

FCC(F)(F)F [1,1,1,2-tetrafluoroethane]
Conditions	vapor or sublimation pressure [kPa]
243.1 K	84.23 ± 2.2
248.08 K	106.12 ± 2.3
263.01 K	199.39 ± 2.9
283.03 K	412.95 ± 4.7
303.12 K	769.5 ± 8.1
328.05 K	1488 ± 15
352.93 K	2620.8 ± 27

C=C(F)C(F)(F)F [2,3,3,3-tetrafluoro-1-propene]
Conditions	vapor or sublimation pressure [kPa]
224.12 K	38.9 ± 2
228.21 K	48.3 ± 2
233.12 K	62 ± 2
234.21 K	65.5 ± 2
238.08 K	78.7 ± 2
243.03 K	98.8 ± 2
247.95 K	121.7 ± 2
252.91 K	149.2 ± 2
255.49 K	165.3 ± 2
257.7 K	180.4 ± 2
258.61 K	186.9 ± 2
263.14 K	221.7 ± 2.1
268.1 K	265.1 ± 2.1
272.98 K	313.9 ± 2.1
277.96 K	370.5 ± 2.1
283.09 K	437.1 ± 2.2
288.08 K	509.4 ± 2.2
292.87 K	587.3 ± 2.3
297.97 K	679.4 ± 2.4
303.12 K	783.2 ± 2.4
308.11 K	894.6 ± 2.6
313.09 K	1018 ± 2.7
315.59 K	1083.5 ± 2.7
318.08 K	1153 ± 2.8
320.61 K	1224 ± 2.9
323.11 K	1301.1 ± 3
325.58 K	1380 ± 3.1
333.06 K	1638.3 ± 3.4
338.05 K	1831 ± 3.7
343.02 K	2039 ± 3.9
348.01 K	2265.6 ± 4.2
352.98 K	2511.5 ± 4.6
357.97 K	2778.2 ± 4.9
362.94 K	3067.1 ± 5.3
365.93 K	3218.4 ± 5.4
